The values below come from patent publication US20250009737A1, “COMPOUNDS AND METHODS FOR THE TARGETED DEGRADATION OF ANDROGEN RECEPTOR” (Arvinas Operations, Inc., priority 2023, published 2025).

As a reminder, the IC50 is the concentration that gives 50% inhibition.

Holding throughout (assay type): in vitro ADME
Data set [1] deals with major recombinant CYPs. Description: Incubation with recombinant human CYP enzymes. The conditions noted are these: up to 25 min. As for the experimental part:
Metabolite profiling was conducted in incubations of Compound A (2 and 10 μM) with HLM (up to 60 min), human hepatocyte suspension (up to 240 min) and human plasma (up to 360 min). In addition, Compound A (2 μM) was incubated with recombinant human CYP enzymes CYP1A2, CYP2A6, CYP2B6, CYP2C8, CYP2C9, CYP2C19, CYP2D6, CYP2E1, CYP3A4 and CYP3A5.
The DDI potential of Compound A as a victim via CYP mediated pathways was examined in HLM, human hepatocyte suspensions, and human recombinant CYP enzymes.

Data set [2] concerns CYP3A4 mRNA. The experiment in a line: CYP3A4 mRNA induction in cryopreserved human hepatocytes. The conditions noted are these: for CYP3A4 mRNA induction, % PC: % of positive control response; for CYP3A4 mRNA Fold induction: human hepatocytes, maximal.
Data set [3] deals with T1, OATP1B1 (Homo sapiens, UniProt Q9Y6L6).
T1 sequence (Q9Y6L6 1-691): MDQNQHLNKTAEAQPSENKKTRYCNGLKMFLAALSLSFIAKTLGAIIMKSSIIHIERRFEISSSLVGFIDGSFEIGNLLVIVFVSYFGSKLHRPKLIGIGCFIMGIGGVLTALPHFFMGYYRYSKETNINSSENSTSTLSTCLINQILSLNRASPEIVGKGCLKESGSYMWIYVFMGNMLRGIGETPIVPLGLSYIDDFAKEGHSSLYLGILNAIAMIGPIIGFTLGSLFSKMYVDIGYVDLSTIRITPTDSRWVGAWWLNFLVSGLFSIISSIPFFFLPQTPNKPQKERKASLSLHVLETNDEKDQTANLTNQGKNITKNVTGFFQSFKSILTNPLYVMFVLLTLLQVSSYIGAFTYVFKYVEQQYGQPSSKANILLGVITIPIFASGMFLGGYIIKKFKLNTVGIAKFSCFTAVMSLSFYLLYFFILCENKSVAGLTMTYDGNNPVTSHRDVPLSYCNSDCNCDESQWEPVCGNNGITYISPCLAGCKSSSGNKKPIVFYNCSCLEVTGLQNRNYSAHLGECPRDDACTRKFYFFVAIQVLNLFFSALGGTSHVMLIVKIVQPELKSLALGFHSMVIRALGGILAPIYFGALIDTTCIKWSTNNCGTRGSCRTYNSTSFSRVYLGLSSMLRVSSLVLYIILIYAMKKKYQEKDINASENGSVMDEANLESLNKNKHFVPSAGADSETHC
Description: OATP1B1 uptake transporter inhibition in MDCKII or HEK293 cells. Set-up: expressed in transfected cells; host or cells: MDCKII or HEK293. The conditions noted are these: substrate Rosuvastatin (1 μM). As for the experimental part: In addition, the inhibition potential against efflux transporters (P-glycoprotein (Pgp) and breast cancer resistance protein (BCRP)) and uptake transporters (MATE1, MATE2-K, OATP1B1, OATP1B3, OAT1, OAT3, and OCT2) was assessed using single transporter over-expressed cell monolayers (MDCK II or HEK293) or inside-out vesicles.
The potential of Compound A to inhibit Pgp or BCRP was tested for bidirectional transport of the probe substrates in Pgp or BCRP-expressed MDCKII and control monolayers at Compound A concentrations of 0.07-5 μM. Pgp and BCR inhibition were tested in inside-out membrane vesicles prepared from HEK293 overexpressing human Pgp and BCR at concentrations of 0.01-9 μM Compound A in the presence of 4 mM MgATP or MgAMP.

Data set [4] has as its target T2, CYP2C8 (Homo sapiens, UniProt P10632).
T2 construct: evaluated in pooled human liver microsomes (HLM); from tissue; host or cells: pooled human liver microsomes
Description: Direct and time-dependent CYP2C8 inhibition in pooled human liver microsomes. The conditions noted are these: pooled HLM, substrate Amodiaquine 2 μM. As for the experimental part: (§1) The induction potential of Compound A on CYP enzymes was assessed in cryopreserved human hepatocytes from three donors. Following treatment for with Compound A at concentrations of 0.03-30 μM for 48 hours, mRNA levels for CYP1A2, 2B6, 2C8, 2C9, 2C19, and 3A4 were determined by semiquantitative real-time polymerase chain reaction (PCR). Test article concentrations during 24-hour incubation were determined. The potential of Compound A to cause direct and time-dependent inhibition (TDI) of the activities of CYP1A2, 2B6, 2C8, 2C9, 2C19, 2D6, and 3A4 was evaluated in pooled human liver microsomes (HLM) at 0.2-15 μM. Probe substrate concentrations around Km were used for direction inhibition and initial TDI assays. For TDI assay, Compound A was pre-incubated with pooled HLM with and without NADPH for 30 minutes prior to incubation with a single concentration of probe substrate.
A general note: Liver microsomes are vesicles of endoplasmic reticulum, rich in cytochrome P450 enzymes.

Data set [5] concerns the target CYP3A (Homo sapiens, UniProt P08684). The experiment in a line: Direct and time-dependent CYP3A inhibition in pooled human liver microsomes. The conditions noted are these: pooled HLM, read-out: IC50, No Pre-incubation. As for the experimental part:
as §1

The structures appear in SMILES notation. Read-outs that look alike come from different tables or passages of the source.

T2 sequence (P10632 whole entry): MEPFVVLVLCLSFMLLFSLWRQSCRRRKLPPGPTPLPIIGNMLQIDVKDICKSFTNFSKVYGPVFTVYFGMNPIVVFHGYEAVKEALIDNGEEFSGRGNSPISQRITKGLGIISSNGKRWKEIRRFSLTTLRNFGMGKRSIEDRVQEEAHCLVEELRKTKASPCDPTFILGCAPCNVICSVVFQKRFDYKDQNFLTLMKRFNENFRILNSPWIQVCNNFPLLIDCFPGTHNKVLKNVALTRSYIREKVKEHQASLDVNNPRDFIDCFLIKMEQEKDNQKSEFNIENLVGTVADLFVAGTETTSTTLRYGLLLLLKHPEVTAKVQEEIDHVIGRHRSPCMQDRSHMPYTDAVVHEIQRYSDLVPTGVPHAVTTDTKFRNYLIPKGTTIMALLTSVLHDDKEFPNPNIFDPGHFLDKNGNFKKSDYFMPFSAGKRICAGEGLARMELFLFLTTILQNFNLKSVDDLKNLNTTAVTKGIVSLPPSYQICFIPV
Chain of CYP3A (P08684 2-503): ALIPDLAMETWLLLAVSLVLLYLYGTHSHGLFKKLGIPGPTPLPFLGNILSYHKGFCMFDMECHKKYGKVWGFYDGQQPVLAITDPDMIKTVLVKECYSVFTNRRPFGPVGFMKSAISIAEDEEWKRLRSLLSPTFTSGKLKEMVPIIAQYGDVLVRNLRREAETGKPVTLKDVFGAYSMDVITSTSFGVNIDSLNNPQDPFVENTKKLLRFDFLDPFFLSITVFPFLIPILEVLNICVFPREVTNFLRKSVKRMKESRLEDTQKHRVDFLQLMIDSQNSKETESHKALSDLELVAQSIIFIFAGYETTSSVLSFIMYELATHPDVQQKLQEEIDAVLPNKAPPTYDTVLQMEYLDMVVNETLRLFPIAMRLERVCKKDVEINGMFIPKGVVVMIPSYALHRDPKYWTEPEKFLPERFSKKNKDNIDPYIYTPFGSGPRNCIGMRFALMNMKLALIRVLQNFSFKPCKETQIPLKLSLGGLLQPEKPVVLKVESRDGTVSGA

In the case of `COc1cc(O[C@H]2C(C)(C)[C@H](NC(=O)c3ccc(N4CCC(CN5CCN(c6ccc(C(=O)N[C@H]7CCC(=O)NC7=O)c(F)c6)CC5)CC4)cc3)C2(C)C)ccc1C#N` [Compound A, 4-(4-((1-(4-(((1R,3R)-3-(4-cyano-3-methoxyphenoxy)-2,2,4,4-tetramethylcyclobutyl)carbamoyl)phenyl)piperidin-4-yl)methyl)piperazin-1-yl)-N—((S)-2,6-dioxopiperidin-3-yl)-2-fluorobenzamide], the “Stability in major recombinant CYPs” value in data set [1] is recorded as “relatively stable”. The “CYP3A4 mRNA induction, % PC” value stood at 5 % PC in data set [2] (Donor 1), 6 % PC in data set [2] (Donor 2) and 5 % PC in data set [2] (Donor 3). Besides, the figures for the “CYP3A4 mRNA Fold induction” value in data set [2] (Donor 1), in data set [2] (Donor 2) and in data set [2] (Donor 3) were 8.8 Fold, 2.5 Fold and 3.3 Fold, respectively. Moreover, the “CYP3A4 mRNA induction, % of positive control response” value in data set [2] (all three donors, at 0.1-0.3 μM) is recorded as 4-6%. For the same molecule, in data set [2] (human, cryopreserved human hepatocytes, all three donors, at 0.1-0.3 μM, read-out: Maximal fold induction in CYP3A4 mRNA), the fold induction at 48 h was 2.5 to 8.8. For the same molecule, the IC50 was greater than 3.75 µM in data set [3]; greater than 15 µM in data set [4] (read-out: IC50, 30 min Pre-incubation); greater than 15 µM in data set [4] (read-out: IC50, No Pre-incubation); greater than 15 µM in data set [5] (probe midazolam (2 μM), substrate Midazolam 2 μM); greater than 15 µM in data set [5] (probe testosterone (50 μM), substrate Testosterone 50 μM).
